In patent publication US20250195502A1, “APPLICATION OF TETRACYCLIC COMPOUND IN TREATMENT OF TUMORS” (SHANGHAI SHIJIANG BIOTECHNOLOGY CO., LTD, priority 2022, published 2025):
Read-outs that look alike come from different tables or passages of the source.

Tests used:
Type in all cases: cell-based
[1] = system: NB-1 (brain neuroblastoma cell); test: Cell viability assay (Promega CellTiter-Glo), inhibitory effect on NB-1; conditions: Homo sapiens, 72 h, 3 days of culture, read-out: inhibitory effect on brain cell line NB-1 (IC50)
Protocol: (§1) The inhibitory effect of the compounds prepared in the Examples of the present invention on various brain tumor cell lines was detected using cell viability assay reagent.
(§2) Cell viability was detected using the Promega CellTiter-Glo kit, cell viability was determined by directly measuring intracellular ATP content. In the experiment, the IC50 value of the compounds prepared in the Examples of the present invention on various brain tumor cell lines was detected.
(§3) Each tumor cell was cultured in relevant medium. After cell passage, the gradient diluted compounds prepared in the Examples of the present invention was added. After 3 days of culture, the relevant IC50 (50% inhibiting concentration) was measured. The name, source and culture conditions of each tumor cell line were as follows:
Cell line NB-1 (ATCC, No. HTB-131) was cultured in 10% fetal bovine serum-containing Leibovitz's L-15 medium (+P/S).

[2] = system: G-401 (human renal carcinoma Wilms cell); test: Cell viability assay (Promega CellTiter-Glo), inhibitory effect on G-401; conditions: 72 h, 3 days of culture
Protocol: (§4) The inhibitory effect of the compounds prepared in the Examples of the present invention on various tumor cell lines was detected using cell viability assay reagent.
(§5) Cell viability was detected using the Promega CellTiter-Glo kit, cell viability was determined by directly measuring intracellular ATP content. In the experiment, the ICso value of the compounds prepared in the Examples of the present invention on various tumor cell lines was detected.
as §3
Cell line G-401 (ATCC, No. CRL-1441) was cultured in 10% fetal bovine serum-containing McCoy's 5a medium (+P/S).

[3] = system: NCI-H82 (human small cell lung cancer cell); test: Cell viability assay (Promega CellTiter-Glo), inhibitory effect on NCI-H82; conditions: 72 h, 3 days of culture
Protocol: as §4, §5, §3
Cell line NCI-H82 (ATCC, No. HTB-175) was cultured in 10% fetal bovine serum-containing RPMI1640 medium (+P/S).

[4] = system: sh-DNMT1 NCI-H82 cell (DNMT1 knocked down NCI-H82); test: Cell viability assay (Promega CellTiter-Glo), inhibitory effect on sh-DNMT1 NCI-H82 cell; conditions: Homo sapiens, NCI-H82 with DNMT1 knocked down by shRNA
Protocol: (§6) The role of expression level of NNMT gene and DNMT1 in the sensitivity of NCI-H82 cell to the compounds prepared in the Examples of the present invention was determined
(§7) The expression of NNMT protein in NCI-H82 cell was overexpressed by inserting the NNMT gene into NCI-H82 cell using a viral vector, and the NNMT protein-overexpressing NCI-H82 cell (ov-NNMT NCI-H82 cell) was obtained. The expression of DNMT1 in NCI-H82 cell was knocked down transfecting (the by shRNA nucleotide sequence of shRNA was […] TTTTTG (SEQ ID No: 2)) using a viral vector, and the NCI-H82 cell with low expression of DNMT1 protein (sh-DNMT1 NCI-H82 cell) was obtained. The control NCI-H82 cell (Con-NCI-H82 cell) was obtained by transfecting NCI-H82 cell with empty virus vector without carrying NNMT gene and shRNA. The expressing content of NNMT protein and DNMT1 protein in the Con-NCI-H82 cell, the expressing content of NNMT protein in the ov-NNMT NCI-H82 cell, and the expressing content of DNMT1 protein in the sh-DNMT1 NCI-H82 cell were detected using Western Blot assay (as shown in FIG. 15 and FIG. 16), it could be seen from FIG. 15 and FIG. 16 that the NNMT protein was overexpressed in the ov-NNMT NCI-H82 cell and the expression of DNMT1 protein was knocked down (i.e, low expression) in the sh-DNMT1 NCI-H82 cell compared with the expression level of NNMT protein and DNMT protein in the Con-NCI-H82 cell.

[5] = system: Kelly (brain neuroblastoma cell); test: Cell viability assay (Promega CellTiter-Glo), inhibitory effect on Kelly; conditions: Homo sapiens, 72 h, 3 days of culture, read-out: inhibitory effect on brain cell line Kelly (IC50)
Protocol: as §1, §2, §3
Cell line Kelly (ECACC, No. 92110411) was cultured in 10% fetal bovine serum and 2 mM glutamine-containing RPMI1640 medium.

[6] = system: CFPAC-1 (human pancreatic cancer cell); test: Cell viability assay (Promega CellTiter-Glo), inhibitory effect on CFPAC-1; conditions: 72 h, 3 days of culture
Protocol: as §4, §5, §3
Cell line CFPAC-1 (ATCC, No. CRL-1918) was cultured in 10% fetal bovine serum-containing IMDM medium (+P/S).

[7] = system: SW48 (human colon adenocarcinoma cell); test: Cell viability assay (Promega CellTiter-Glo), inhibitory effect on SW48; conditions: 72 h, 3 days of culture
Protocol: as §4, §5, §3
Cell line SW48 (ATCC, No. CCL-231) was cultured in 10% fetal bovine serum-containing Leibovitz's L-15 medium (+P/S).

[8] = system: 786-O (clear cell renal cell adenocarcinoma cell); test: Cell viability assay (Promega CellTiter-Glo), inhibitory effect on 786-O; conditions: Homo sapiens, 786-0, 72 h, 3 days of culture
Protocol: as §4, §5, §3
Cell line 786-0 (ATCC, No. CRL-1932) was cultured in 10% fetal bovine serum-containing RPMI1640 medium (+P/S).

[9] = system: SF126 (human glioblastoma multiforme cell); test: Cell viability assay (Promega CellTiter-Glo), inhibitory effect on SF126
Protocol: as §4, §5, §3
Cell line SF126 (JCRB, No. IFO50286) was cultured in 10% fetal bovine serum-containing EMEM medium (+P/S).
as §1, §2

[10] = system: ov-NNMT NCI-H82 cell (NNMT protein-overexpressing NCI-H82); test: Cell viability assay (Promega CellTiter-Glo), inhibitory effect on ov-NNMT NCI-H82 cell; conditions: Homo sapiens
Protocol: as §6, §7

[11] = system: MDA-MB-453 (breast cancer cell); test: Cell viability assay (Promega CellTiter-Glo), inhibitory effect on MDA-MB-453; conditions: Homo sapiens, 72 h, 3 days of culture
Protocol: as §4, §5, §3
Cell line MDA-MB-453 (ATCC, No. HTB-131) was cultured in 10% fetal bovine serum-containing Leibovitz's L-15 medium (+P/S).

[12] = system: D341 Med (cerebellar medulloblastoma cell); test: Cell viability assay (Promega CellTiter-Glo), inhibitory effect on D341 Med; conditions: Homo sapiens, 72 h, 3 days of culture, read-out: inhibitory effect on brain cell line D341 Med (IC50)
Protocol: as §1, §2, §3
Cell line D341 Med (ATCC, No. HTB-187) was cultured in 20% fetal bovine serum-containing EMEM medium (+P/S).

[13] = system: Con-NCI-H82 cell (NCI-H82 transfected with empty virus vector); test: Cell viability assay (Promega CellTiter-Glo), inhibitory effect on Con-NCI-H82 cell; conditions: Homo sapiens; NCI-H82 transfected with empty virus vector (control); CellTiter-Glo; read-out: inhibitory effect on Con-NCI-H82 (IC50)
Protocol: as §6, §7

[14] = system: GB-1 (human brain glioblastoma cell); test: Cell viability assay (Promega CellTiter-Glo), inhibitory effect on GB-1; conditions: 72 h, 3 days of culture
Protocol: as §4, §5, §3
Cell line GB-1 (JCRB, No. IFO50489) was cultured in 10% fetal bovine serum-containing DMEM medium (+P/S).
as §1, §2

[15] = 72 h, SF-126, 3 days of culture, Table 3, read-out: inhibitory effect on SF-126 (IC50)
[16] = SF-126, 72 h, SF126, 3 days of culture, Table 4, read-out: inhibitory effect on brain cell line SF126 (IC50)
[17] = Table 3, read-out: inhibitory effect on GB-1 (IC50)
[18] = Table 4, read-out: inhibitory effect on brain cell line GB-1 (IC50)

SMILES	IC50 [1] [nM]	IC50 [2] [nM]	IC50 [3] [nM]	IC50 [4] [nM]	IC50 [5] [nM]	IC50 [6] [nM]	IC50 [7] [nM]	IC50 [8] [nM]	IC50 [9, 15] [nM]	IC50 [9, 16] [nM]	IC50 [10] [nM]	IC50 [11] [nM]	IC50 [12] [nM]	IC50 [13] [nM]	IC50 [14, 17] [nM]	IC50 [14, 18] [nM]
CCCCc1c2c(OC)c(OC)ccc2cc2[n+]1CCc1cc3c(cc1-2)OCO3 [compound AB31707]	290	1120	1170	3410	1240	13000	1420	7630	10200	10200	2960	620	1370	1170	8270	8270
CCCCc1c2c(OC)c(OC)cc(Br)c2cc2[n+]1CCc1cc3c(cc1-2)OCO3 [compound AB31711]	240	720	650	1900	880	9470	820	3970	5210	5210	1430	500	920	650	5320	5320
COc1ccc2cc3[n+](cc2c1OCCCCOc1ccccc1)CCc1cc2c(cc1-3)OCO2 [compound AB31718]	20	370	290	1360	660	5290	250	2690	4250	4250	680	90	180	290	3410	3410
COc1ccc2cc3[n+](cc2c1OCCCBr)CCc1cc2c(cc1-3)OCO2 [compound AB31721]	140	1380	400	1310	1260	7170	800	9160	10800	10800	920	430	360	400	10000	10000
CCC(CC)C(=O)Oc1c(OC)ccc2cc3[n+](cc12)CCc1cc2c(cc1-3)OCO2 [compound AB31722]	980	3940	2810	8930	2520	24400	2060	26200	20600	20600	5980	1410	2890	2810	40400	40400
COc1ccc2cc3[n+](cc2c1OCCCCCCCl)CCc1cc2c(cc1-3)OCO2 [compound AB31731]	70	770	520	1660	860	8980	620	3760	6190	6190	1320	220	340	520	6640	6640
COc1ccc2cc3[n+](cc2c1OC/C=C(\C)CCC=C(C)C)CCc1cc2c(cc1-3)OCO2 [compound AB31737]	20	170	240	940	360	4600	200	2340	4140	4140	730	90	400	240	2660	2660
CCCCCCCCNc1c(OC)ccc2cc3[n+](cc12)CCc1cc2c(cc1-3)OCO2 [compound AB31739]	90	530	450	1550	640	6070	430	3050	3570	3570	950	370	860	450	3970	3970
COc1ccc2cc3[n+](cc2c1NCCc1ccccc1)CCc1cc2c(cc1-3)OCO2 [compound AB31740]	80	930	490	1570	840	12400	340	5130	7770	7770	1550	200	530	490	7740	7740
COc1ccc2c(Cc3ccc(C(C)(C)C)cc3)c3[n+](cc2c1OC)CCc1cc2c(cc1-3)OCO2 [compound AB31748]	210	320	320	910	460	4950	420	3930	3530	3530	780	320	670	320	3210	3210
CCCCc1c2[n+](cc3c(OC)c(OC)ccc13)CCc1cc3c(cc1-2)OCO3 [compound AB31757]	150	740	880	3820	1500	29900	650	15200	16000	16000	3320	680	2820	880	17500	17500
